We go through 37 compounds from a melting point compilation (Tetko et al.; mined from patent text by program, amines drawn as free bases though some values may be those of a salt).

Take `O=C(CCCCN1CCN(c2cccc(Cl)c2Cl)CC1)N1CCc2ccccc21`: the melting point (as a rule, the temperature, or range, at which the solid turns liquid) lay within 121 to 123 °C.
`O=C(c1cc(O)c(O)c([N+](=O)[O-])c1)c1cccs1`: the melting point is 155 to 157 °C.
Consider `COC(=O)c1cccc(C)c1[N+](=O)[O-]`, for which the melting point stood at 72 °C.
The figure for `O=S(=O)(Br)c1ccc(Br)s1` is 48 to 50 °C; for `Cc1ccccc1-c1cc2cnc(N)nc2nc1NC(=O)NC(C)(C)C` it is 195 to 197 °C; for `Fc1ccc(Oc2nccc(-c3c(-c4ccc(F)cc4)ncn3C3CCNCC3)n2)cc1` it is 186 to 187 °C.
The figure for `Cc1cccc2c1ccc1c3occ(C)c3c(=O)oc21` is 173 to 175 °C; for `O=C(O)Cc1ccc2c(c1)CCc1ccccc1O2` it is 135 to 137 °C; for `CS(=O)c1nc(-c2ccccc2)c(-c2ccccc2)o1` (configuration not stated) it is 75 to 78 °C.
On to `Cc1ccc(S(=O)(=O)O[C@H](Cc2ccccc2)C(=O)NCCc2ocnc2C(=O)OCc2ccccc2)cc1`, for which the melting point fell in the range of 96 to 98 °C.
Take `CCOC(=O)NCC(O)c1ccc(OC)c(OC)c1` (configuration not stated): the melting point was 90 to 92 °C.
The figure for `CCCN(c1ccccc1)C1CCN(CCOc2c(C)cccc2C)CC1` is 82 °C; for `Nc1cc(CO)cc([N+](=O)[O-])c1-c1ccc(O)cc1` it is 158 °C; for `OC[C@@H]1CN(C(c2ccccc2)(c2ccccc2)c2ccccc2)CCO1` it is 142 °C.
The figure for `Nc1cccc(SC2SCC(O)C(O)C2O)c1` (configuration not stated) is 128 to 132 °C; for `Fc1ccc2c(c1)CC(n1cc[nH]c1=S)CC2` (configuration not stated) it is 215 to 217 °C.
The figure for `Cc1sc(-c2nccs2)c2c1C(=O)CC(C)(C)C2` is 98 to 100 °C; for `CCOc1cc(OCC)c(C=NNC(=N)NCc2ccccc2)c(OCC)c1` it is 140 to 141 °C.
`CCCCOC(=O)c1ccc(-c2cc(-c3ccc4c(c3)C(C)(C)CCC4(C)C)nc(O)n2)cc1` yielded a melting point of 267 to 277 °C.
The figure for `COc1ccc(C2=C(C#N)C(c3ccccc3OC)c3c[nH]nc3N2)cc1` (configuration not stated) is 149 °C.
The figure for `NC(=O)c1ccccc1OCC1CC1` is 102 to 105 °C; for `COC(=O)CNc1cccc(C#N)c1` it is 91.5 to 92.5 °C.
On to `CCC(=S)C1=C(C)NC2=C(C(=O)c3ccccc32)C1c1ccccc1[N+](=O)[O-]` (configuration not stated), for which the melting point is 221 °C.
`CCOc1cc(-n2nc(C)c(Cl)c2C)c(F)cc1Cl` yielded a melting point of 106 to 108 °C.
On to `C=CC(=O)N1CCSc2ccccc2C1`, for which the melting point fell in the range of 108 to 110 °C.
On to `CCOc1nc2c(N)nc3cccnc3c2n1CC1CCOCC1`, for which the melting point was 197 to 200 °C.
The compound `N#CCCn1ncccc1=O` came in with a melting point of 75 to 76 °C.
As for `Cn1ccnc1Sc1cc(Cl)ccc1[N+](=O)[O-]`, the melting point lay in the range of 130 to 131 °C.
As to `CCOc1ccc(-c2nc(CCC(=O)OC)cs2)cc1OCC`, the melting point lay in the range of 58.1 to 58.3 °C.
The figure for `O=C(NCCN1CCC2(CC1)C(=O)NCN2c1ccccc1)c1ccc(F)cc1[N+](=O)[O-]` is 160 °C.
As for `CN1CCN(c2cccc3c2CC[C@@H](N)C3)CC1`, the melting point lay in the range of 98 to 99 °C.
Compound `CC(C)(C)OC(=O)N1CCc2cc3nccnc3cc2CC1` displayed a melting point of 107 to 109 °C.
The figure for `CCCc1c(OCCCOc2ccc3c(c2)CCC(CC(=O)O)C3=O)ccc(C(C)=O)c1O` (configuration not stated) is 123 to 125 °C; for `CS(=O)(=O)c1ccc(-c2cc(/C=C/CO)nn2CC2CCCCC2)cc1` it is 49 to 52 °C; for `CCn1c2s[nH]c(=O)c2c(=O)c2cc(F)c(N3CCN(c4ncccn4)CC3)c(OC(F)F)c21` it is 259 to 262 °C.
The figure for `O=C(NC(=O)N1CCC(Cc2ccc(F)cc2F)CC1)c1ccc(O)cc1` is 168 °C; for `CCOC(=O)c1ccc(NC(=O)Cn2ccnc2)cc1` it is 185 to 187 °C.
